Reference: US9938258B2 (Karyopharm Therapeutics Inc., priority 2012, dated 2018)
Where two headings read alike, the source gives them in different places.

Tests used:
3T3 cells = test: MTT cell proliferation assay, 3T3; assay type: cell-based, mouse; settings: Mus musculus, NIH3T3, 3T3 cells, read-out: MTT Assay IC50, 3T3
Method in brief: (§1)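 Cells were seeded at 5,000-10,000 per well, left to attach overnight, then exposed to eight compound concentrations from 1 nM to 30 μM. After about 4 h with MTT, solubilized formazan was read at 490 nm and percent inhibition versus negative control was calculated.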

MS751 cells = test: MTT cell proliferation assay, MS751; assay type: cell-based, human; settings: Homo sapiens, MS751, MS751 cells, read-out: MTT Assay IC50, MS751
Method in brief: as §1

Z138 cells = test: MTT cell proliferation assay, Z138; assay type: cell-based; settings: Homo sapiens, Z-138, Z138 cells, read-out: MTT Assay IC50, Z138
Method in brief: as §1

[1] = approximately 64-72 hours incubation
[2] = eight concentrations 1 nM to 30 μM, incubation approximately 64-72 hours

Compound | IC50 (3T3 cells; [1]) | IC50 (MS751 cells; [1]) | IC50 (Z138 cells; [1]) | IC50 (3T3 cells; [2]) | IC50 (MS751 cells; [2]) | IC50 (Z138 cells; [2])
[2H]C1([2H])c2cc(-c3ccc(C(=O)N4CCOCC4)cc3)cc(Cl)c2OC1CNC(=O)/C=C/c1ccc(N)nc1 (stereo not drawn) [Compound 365, (E)-3-(6-aminopyridin-3-yl)-N-((7-chloro-3,3-dideutero-5-(4-(morpholine-4-carbonyl)phenyl)-2,3-dihydrobenzofuran-2-yl)methyl)acrylamide] | < 0.1 µM | < 0.1 µM | 0.1 to 5 µM | – | – | –
CC(=O)c1ccc(-c2cc(Cl)c3c(c2)CC(CNC(=O)/C=C(\C)c2cccnc2)O3)s1 (stereo not drawn) [Compound 283, (E)-N-((5-(5-acetylthiophen-2-yl)-7-chloro-2,3-dihydrobenzofuran-2-yl)methyl)-3-(pyridin-3-yl)but-2-enamide] | > 30 µM | 5 to 30 µM | 5 to 30 µM | – | – | –
CNc1ccc(/C=C/C(=O)NCC2Cc3cc(-c4ccc(C(C)=O)s4)cc(Cl)c3O2)cn1 (stereo not drawn) [Compound 294, (E)-N-((5-(5-acetylthiophen-2-yl)-7-chloro-2,3-dihydrobenzofuran-2-yl)methyl)-3-(6-(methylamino)pyridin-3-yl)acrylamide] | 5 to 30 µM | 0.1 to 5 µM | 0.1 to 5 µM | – | – | –
Nc1ccc(/C=C/C(=O)NCC2Cc3cc(-c4cccc(C(=O)N5CCOCC5)c4)cc(Cl)c3O2)cn1 (stereo not drawn) [Compound 239, (E)-3-(6-aminopyridin-3-yl)-N-((7-chloro-5-(3-(morpholine-4-carbonyl)phenyl)-2,3-dihydrobenzofuran-2-yl)methyl)acrylamide] | 0.1 to 5 µM | < 0.1 µM | < 0.1 µM | – | – | –
CC(=O)c1ccc(-c2cc(Cl)c3c(c2)CC(CNC(=O)/C=C/c2ncc[nH]2)O3)s1 (stereo not drawn) [Compound 278, (E)-N-((5-(5-acetylthiophen-2-yl)-7-chloro-2,3-dihydrobenzofuran-2-yl)methyl)-3-(1H-imidazol-2-yl)acrylamide] | – | – | – | > 30 µM | > 30 µM | > 30 µM
CC(=O)c1ccc(-c2cc(F)c3c(c2)CC(CNC(=O)/C=C/c2cccnc2)O3)s1 (stereo not drawn) [Compound 87, (E)-N-((5-(5-acetylthiophen-2-yl)-7-fluoro-2,3-dihydrobenzofuran-2-yl)methyl)-3-(pyridin-3-yl)acrylamide] | – | – | – | 0.1 to 5 µM | 0.1 to 5 µM | 0.1 to 5 µM
CC(=O)c1ccc(-c2cc(Cl)c3c(c2)CC(CNC(=O)/C=C/c2ccc(C)nc2)O3)s1 (stereo not drawn) [Compound 146, (E)-N-((5-(5-acetylthiophen-2-yl)-7-chloro-2,3-dihydrobenzofuran-2-yl)methyl)-3-(6-methylpyridin-3-yl)acrylamide] | – | – | – | > 30 µM | 5 to 30 µM | > 30 µM
CS(=O)(=O)c1cccc(-c2cc(Cl)c3c(c2)CC(CNC(=O)/C=C/c2cccnc2)O3)c1 (stereo not drawn) [Compound 80, (E)-N-((7-chloro-5-(3-(methylsulfonyl)phenyl)-2,3-dihydrobenzofuran-2-yl)methyl)-3-(pyridin-3-yl)acrylamide] | – | – | – | 0.1 to 5 µM | 0.1 to 5 µM | 0.1 to 5 µM
CC(=O)c1ccc(-c2cc(Cl)c3c(c2)CC(CNC(=O)/C=C/c2c(C)nn(-c4ccc(F)cc4)c2Cl)O3)s1 (stereo not drawn) [Compound 284, (E)-N-((5-(5-acetylthiophen-2-yl)-7-chloro-2,3-dihydrobenzofuran-2-yl)methyl)-3-(5-chloro-1-(4-fluorophenyl)-3-methyl-1H-pyrazol-4-yl)acrylamide] | > 30 µM | > 30 µM | > 30 µM | – | – | –
Nc1ccc(/C=C/C(=O)NCC2Cc3cc(-c4ccc(C(=O)N5CCOCC5)c(F)c4)cc(Cl)c3O2)cn1 (stereo not drawn) [Compound 903, (E)-3-(6-aminopyridin-3-yl)-N-((7-chloro-5-(3-fluoro-4-(morpholine-4-carbonyl)phenyl)-2,3-dihydrobenzofuran-2-yl)methyl)acrylamide] | 0.1 to 5 µM | < 0.1 µM | < 0.1 µM | – | – | –
CC(=O)c1ccc(-c2cc(Cl)c3c(c2)CC(CNC(=O)CCc2cnc(N)c(Br)c2)O3)s1 (stereo not drawn) [Compound 371, N-((5-(5-acetylthiophen-2-yl)-7-chloro-2,3-dihydrobenzofuran-2-yl)methyl)-3-(6-amino-5-bromopyridin-3-yl)propanamide] | > 30 µM | 5 to 30 µM | 5 to 30 µM | – | – | –
O=C(/C=C/c1cccnc1)NCC1Cc2cccc(Cl)c2O1 (stereo not drawn) [Compound 83, (E)-N-((7-chloro-2,3-dihydrobenzofuran-2-yl)methyl)-3-(pyridin-3-yl)acrylamide] | – | – | – | > 30 µM | 5 to 30 µM | 5 to 30 µM
CC(=O)c1ccc(-c2cc(Cl)c3c(c2)CC(CNC(=O)/C=C/c2ccc(C)nc2C)O3)s1 (stereo not drawn) [Compound 174, (E)-N-((5-(5-acetylthiophen-2-yl)-7-chloro-2,3-dihydrobenzofuran-2-yl)methyl)-3-(2,6-dimethylpyridin-3-yl)acrylamide] | – | – | – | > 30 µM | > 30 µM | > 30 µM
CC(O)c1ccc(-c2cc(Cl)c3c(c2)CC(CNC(=O)/C=C/c2cccnn2)O3)s1 (stereo not drawn) [Compound 307] | 0.1 to 5 µM | 0.1 to 5 µM | 0.1 to 5 µM | – | – | –
CCOC(=O)c1cccc(-c2cc(Cl)c3c(c2)CC(CNC(=O)/C=C/c2cccnc2)O3)c1 (stereo not drawn) [Compound 52, (E)-ethyl 3-(7-chloro-2-((3-(pyridin-3-yl)acrylamido)methyl)-2,3-dihydrobenzofuran-5-yl)benzoate] | – | – | – | 0.1 to 5 µM | 0.1 to 5 µM | 0.1 to 5 µM
Nc1ccc(/C=C/C(=O)NCC2Cc3cc(-c4ccc(C(=O)N5CCNCC5)nc4)cc(Cl)c3O2)cn1 (stereo not drawn) [Compound 342, (E)-3-(6-aminopyridin-3-yl)-N-((7-chloro-5-(6-(piperazine-1-carbonyl)pyridin-3-yl)-2,3-dihydrobenzofuran-2-yl)methyl)acrylamide] | 0.1 to 5 µM | 0.1 to 5 µM | > 30 µM | – | – | –
CC(=O)c1ccc(-c2cc(Cl)c3c(c2)CC(CNC(=O)/C=C/c2ccno2)O3)s1 (stereo not drawn) [Compound 293, (E)-N-((5-(5-acetylthiophen-2-yl)-7-chloro-2,3-dihydrobenzofuran-2-yl)methyl)-3-(isoxazol-5-yl)acrylamide] | > 30 µM | > 30 µM | > 30 µM | – | – | –
CC(=O)c1ccc(-c2cc(Cl)c3c(c2)CC(CNC(=O)/C=C/c2ccnnc2)O3)s1 (stereo not drawn) [Compound 273, (E)-N-((5-(5-acetylthiophen-2-yl)-7-chloro-2,3-dihydrobenzofuran-2-yl)methyl)-3-(pyridazin-4-yl)acrylamide] | – | – | – | > 30 µM | > 30 µM | 5 to 30 µM
CC(=O)c1ccc(-c2cc(Cl)c3c(c2)CC(CNC(=O)/C=C/c2ccc(C#N)cc2)O3)s1 (stereo not drawn) [Compound 112, (E)-N-((5-(5-acetylthiophen-2-yl)-7-chloro-2,3-dihydrobenzofuran-2-yl)methyl)-3-(4-cyanophenyl)acrylamide] | – | – | – | > 30 µM | > 30 µM | > 30 µM
Cc1noc(C)c1-c1cc(Cl)c2c(c1)CC(CNC(=O)/C=C/c1cccnc1)O2 (stereo not drawn) [Compound 35, (E)-N-((7-chloro-5-(3,5-dimethylisoxazol-4-yl)-2,3-dihydrobenzofuran-2-yl)methyl)-3-(pyridin-3-yl)acrylamide] | – | – | – | 0.1 to 5 µM | 0.1 to 5 µM | < 0.1 µM
Nc1ccc(/C=C/C(=O)NCC2Cc3cc(-c4cc(F)c(C(=O)N5CCOCC5)c(F)c4)cc(Cl)c3O2)cn1 (stereo not drawn) [Compound 332, (E)-3-(6-Aminopyridin-3-yl)-N-((7-chloro-5-(3,5-difluoro-4-(morpholine-4-carbonyl)phenyl)-2,3-dihydrobenzofuran-2-yl)methyl)acrylamide] | 0.1 to 5 µM | < 0.1 µM | < 0.1 µM | – | – | –
CC1(C)COCCN1C(=O)c1ccc(-c2cc(Cl)c3c(c2)CC(/C=C/C(=O)NCc2ccc(N)nc2)O3)cc1 (stereo not drawn) [Compound 367, (E)-N-((6-aminopyridin-3-yl)methyl)-3-(7-chloro-5-(4-(3,3-dimethylmorpholine-4-carbonyl)phenyl)-2,3-dihydrobenzofuran-2-yl)acrylamide] | 0.1 to 5 µM | < 0.1 µM | < 0.1 µM | – | – | –
CC(=O)c1ccc(-c2cc(Cl)c3c(c2)CC(CNC(=O)/C=C/c2ccc(Cl)nc2)O3)s1 (stereo not drawn) [Compound 45, (E)-N-((5-(5-acetylthiophen-2-yl)-7-chloro-2,3-dihydrobenzofuran-2-yl)methyl)-3-(6-chloropyridin-3-yl)acrylamide] | – | – | – | > 30 µM | > 30 µM | > 30 µM
CC(=O)c1ccc(-c2ccc3c(c2)CC(CNC(=O)/C=C/c2cccnc2)O3)s1 (stereo not drawn) [Compound 292, (E)-N-((5-(5-acetylthiophen-2-yl)-2,3-dihydrobenzofuran-2-yl)methyl)-3-(pyridin-3-yl)acrylamide] | 0.1 to 5 µM | 0.1 to 5 µM | 0.1 to 5 µM | – | – | –
CC(C)(O)c1ccc(-c2cc(Cl)c3c(c2)CC(CNC(=O)/C=C/c2cccnn2)O3)s1 (stereo not drawn) [Compound 320, (E)-N-((7-chloro-5-(5-(2-hydroxypropan-2-yl)thiophen-2-yl)-2,3-dihydrobenzofuran-2-yl)methyl)-3-(pyridazin-3-yl)acrylamide] | 0.1 to 5 µM | 0.1 to 5 µM | 0.1 to 5 µM | – | – | –
O=C(/C=C/c1cccnc1)NCC1Cc2cc(-c3cccc(C(=O)O)c3)cc(Cl)c2O1 (stereo not drawn) [Compound 76, (E)-3-(7-chloro-2-((3-(pyridin-3-yl)acrylamido)methyl)-2,3-dihydrobenzofuran-5-yl)benzoic acid] | – | – | – | 5 to 30 µM | 5 to 30 µM | 5 to 30 µM
